Laboratory results reported in patent publication US11186534B2, “Derivatives of sulindac can protect normal cells against oxidative damage” (University of South Alabama, priority 2017, dated 2021).

Experiments:
ovine COX-1 = biological target: T1, ovine COX-1 (Ovis aries, UniProt P05979); assay: COX Fluorescent Inhibitor Screening assay, COX-1; type: biochemical; conditions: FIG. 4A
T1 construct: purchased Cayman Chemical 700100
T1 sequence (P05979 25-600): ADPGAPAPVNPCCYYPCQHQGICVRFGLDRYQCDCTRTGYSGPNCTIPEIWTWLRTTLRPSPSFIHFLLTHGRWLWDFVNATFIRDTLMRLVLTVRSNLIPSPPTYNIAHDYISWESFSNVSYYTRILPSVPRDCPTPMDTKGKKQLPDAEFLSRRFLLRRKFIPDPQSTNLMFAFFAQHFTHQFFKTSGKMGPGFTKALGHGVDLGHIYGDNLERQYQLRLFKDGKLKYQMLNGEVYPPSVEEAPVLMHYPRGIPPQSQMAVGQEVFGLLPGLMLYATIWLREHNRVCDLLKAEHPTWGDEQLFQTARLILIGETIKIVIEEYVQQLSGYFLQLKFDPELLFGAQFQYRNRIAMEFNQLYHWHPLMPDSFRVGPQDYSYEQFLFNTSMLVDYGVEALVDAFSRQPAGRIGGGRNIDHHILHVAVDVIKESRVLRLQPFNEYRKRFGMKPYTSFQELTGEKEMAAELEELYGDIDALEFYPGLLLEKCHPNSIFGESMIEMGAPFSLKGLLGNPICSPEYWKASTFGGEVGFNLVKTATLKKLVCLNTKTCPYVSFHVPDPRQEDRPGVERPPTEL
Description: (§1) Compounds were assayed for cyclooxygenase (COX) inhibition using the COX Fluorescent Inhibitor Screening Kit from Cayman Chemical (Item #: 700100). Briefly, COX enzyme (ovine COX-1 or human recombinant COX-2) diluted in 1× reaction buffer is incubated with the compound or DMSO control for 20 min at 25° C. in a half-area 96-well black microplate. Background wells are also included that contained no enzyme. Added to each well were heme B, to ensure enzyme activity, and 10-acetyl-3,7-dihydroxyphenoxazine (ADHP) assay reagent. After the 20 min incubation, arachidonic acid (AA) substrate was added to all wells. As shown by the schematic diagram below, active COX enzyme converts AA to hydroperoxy endoperoxide (PGG2). Catalyzed by the secondary peroxidase activity of COX, ADHP can react with PGG2 to form a highly fluorescent compound, resorufin. Fluorescence was measured with a […] excitation wavelength and a 585-595 nm emission wavelength. Decreased fluorescence relative to the DMSO control indicates COX inhibition. See, also, Piazza G A, Keeton A B, Tinsley H N, Gary B D, Whitt J D, Mathew B, Thaiparambil J, Coward L, Gorman, G, Li Y, Sani B, Hobrath J V, Maxuitenko Y Y and Reynolds R C. […] Cancer Prevention Research 2009; 2: 572-580.

human recombinant COX-2 = biological target: T2, human recombinant COX-2 (Homo sapiens, UniProt P35354); assay: COX Fluorescent Inhibitor Screening assay, COX-2; type: biochemical; conditions: FIG. 4B
T2 construct: purchased Cayman Chemical 700100
T2 sequence (P35354 18-604): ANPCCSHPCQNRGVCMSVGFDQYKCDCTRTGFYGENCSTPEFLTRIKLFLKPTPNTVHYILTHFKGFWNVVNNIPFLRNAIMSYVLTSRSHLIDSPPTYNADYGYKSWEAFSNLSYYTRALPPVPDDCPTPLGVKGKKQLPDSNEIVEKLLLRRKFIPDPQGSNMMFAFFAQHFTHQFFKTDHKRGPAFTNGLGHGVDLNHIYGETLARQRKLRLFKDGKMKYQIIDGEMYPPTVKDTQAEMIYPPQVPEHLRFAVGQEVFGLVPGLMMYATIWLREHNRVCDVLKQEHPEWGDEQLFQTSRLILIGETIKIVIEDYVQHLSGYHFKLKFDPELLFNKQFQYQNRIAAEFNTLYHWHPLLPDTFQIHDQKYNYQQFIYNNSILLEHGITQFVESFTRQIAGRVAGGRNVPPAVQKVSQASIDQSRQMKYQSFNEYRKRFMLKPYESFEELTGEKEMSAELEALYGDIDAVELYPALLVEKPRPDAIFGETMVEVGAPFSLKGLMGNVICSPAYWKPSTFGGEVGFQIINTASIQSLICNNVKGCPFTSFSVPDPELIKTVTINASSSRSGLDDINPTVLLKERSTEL
Description: as §1

[1] = test system: rat intact hearts (Langendorff model); assay: Langendorff model of ischemia/reperfusion injury, LDH release; type: in vivo, Sprague Dawley rats
Description: (§2) The ex vivo Langendorff procedure is a well-established preparation used to investigate heart physiology, ischemia/reperfusion injury, and other cardiovascular insults (23, 24; also see, e.g., reference 22). Sprague Dawley rats (275-325g) were administered either no drug or Compound 9 daily (at 0.7 mg/kg) for a total of two days (two administrations in total). Forty-eight hours after the start of drug exposure, hearts were removed and exposed to 45 min no flow ischemia and 2 h reperfusion in the Langendorff model (hearts were first equilibrated in KHB buffer for 10 min and then subjected to 45 min ischemia followed by 2 h reperfusion with KHB buffer), in the absence of drug.
In LDH and TTC assays for the Langendorff Preparation, coronary effluent samples (500 μL) from the Langendorff preparation were obtained upon attachment of excised heart, every 15 min before ischemia, immediately after 45 min ischemia, and at 15 min intervals during reperfusion. LDH was measured (using a Cytotox-96 nonradioactive cytotoxicity assay kit (Promega), with the absorbance read at 490 nm). Immediately upon completion, the heart was sliced into 2-mm cross-sectional pieces and slices were incubated for 30 min with 1% 2,3,5-triphenyl tetrazolium chloride (TTC) stain in Krebs-Henseleit buffer (KHB) (pH=7.4) at 37° C. to distinguish between viable (red) and nonviable (white) tissue. Tissue slices were stored overnight in 10% formaldehyde before measurement of infarct size using NIH-Image J software.
The protective (preconditioning) effect of Compound 9 was evaluated in an art-recognized Langendorff model of ischemia/reperfusion injury. Compound 9 was administered via i.p. injection to test animals daily for two days, and animal hearts were then removed for performance of the Langendorff procedure (described above and known in the art).

[2] = test system: rat intact hearts (Langendorff model); assay: Langendorff model of ischemia/reperfusion injury, infarct size by TTC staining; type: in vivo, Sprague Dawley rats; conditions: 45 min ischemia and 2 h reperfusion; 0.7 mg/kg daily for 48 h; FIG. 8
Description: as §2
In LDH and TTC assays for the Langendorff Preparation, coronary effluent samples (500 μL) from the Langendorff preparation were obtained upon attachment of excised heart, every 15 min before ischemia, immediately after 45 min ischemia, and at 15 min intervals during reperfusion. LDH was measured (using a Cytotox-96 nonradioactive cytotoxicity assay kit (Promega), with the absorbance read at 490 nm). […]
The protective (preconditioning) effect of Compound 9 was evaluated in an art-recognized Langendorff model of ischemia/reperfusion injury. […]

[3] = 0.7 mg/kg i.p. daily for 48 h, FIG. 9

Structure (SMILES): COc1cc2c(cc1OC)/C(=C\c1cc(OC)c(OC)c(OC)c1)C(C)=C2CC(=O)O [Compound 9, (Z)-2-(5,6-dimethoxy-2-methyl-1-(3,4,5-trimethoxybenzylidene)-1H-inden-3-yl)acetic acid]
- COX-1 inhibition: fold less potent than sulindac sulfide (SS) (ovine COX-1): ≥ 20 ×
- COX-2 inhibition: fold less potent than celecoxib (human recombinant COX-2): approximately 1000 ×
- Protective effect during the 45 min ischemia phase [1, 3]: robust protective effect
- Protective effect during the 2 h reperfusion phase [1, 3]: robust protective effect
- LDH levels vs no drug control ([1]; 2 h reperfusion, 0.7 mg/kg daily for 48 h, FIG. 7): decrease in LDH levels
- Levels of LDH released vs no drug ([1]; after 45 min no flow ischemia, 0.7 mg/kg daily for 48 h, FIG. 7): significantly lower
- Infarction size (percent of heart infarcted, TTC staining) [2]: below 20%
